From article PMC8055690, “Flavonoids increase melanin production and reduce proliferation, migration and invasion of melanoma cells by blocking endolysosomal/melanosomal TPC2” (Scientific Reports, 2021)

Experiments:
[1] = target: T1, two-pore channel 2 (hTPC2) (Homo sapiens, UniProt Q8NHX9); assay: endolysosomal patch-clamp, block of PI([…])P2-evoked current; format: biochemical
T1 construct: gene TPCN2; hTPC2-YFP stably expressed in HEK293 cells

[2] = target: T1, two-pore channel 2 (hTPC2); assay: endolysosomal patch-clamp, single concentration […]; format: cell-based

T1 sequence (Q8NHX9 whole entry): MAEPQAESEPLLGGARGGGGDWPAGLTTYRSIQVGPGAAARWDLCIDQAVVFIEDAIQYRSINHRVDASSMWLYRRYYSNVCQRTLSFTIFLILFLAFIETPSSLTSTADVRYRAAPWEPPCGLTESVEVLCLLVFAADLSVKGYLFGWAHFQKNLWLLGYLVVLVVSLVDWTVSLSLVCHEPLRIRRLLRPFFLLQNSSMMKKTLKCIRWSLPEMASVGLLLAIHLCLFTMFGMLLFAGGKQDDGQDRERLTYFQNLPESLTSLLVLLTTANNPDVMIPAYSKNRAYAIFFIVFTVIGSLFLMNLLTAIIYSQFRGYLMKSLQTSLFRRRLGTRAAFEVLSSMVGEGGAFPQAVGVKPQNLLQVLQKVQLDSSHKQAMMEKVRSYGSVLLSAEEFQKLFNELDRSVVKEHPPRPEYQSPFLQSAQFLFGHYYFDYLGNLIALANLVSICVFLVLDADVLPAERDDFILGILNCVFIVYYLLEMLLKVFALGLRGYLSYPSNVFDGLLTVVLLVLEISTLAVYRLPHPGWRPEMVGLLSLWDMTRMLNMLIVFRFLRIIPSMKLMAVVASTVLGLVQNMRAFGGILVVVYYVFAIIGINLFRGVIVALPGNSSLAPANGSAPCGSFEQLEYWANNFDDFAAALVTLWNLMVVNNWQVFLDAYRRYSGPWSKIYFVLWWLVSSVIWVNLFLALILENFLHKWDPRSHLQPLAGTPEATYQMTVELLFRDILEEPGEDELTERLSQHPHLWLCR

| SMILES | IC50 [1] [µM] | endolysosomal patch-clamp, single concentration 10 μM [2] |
| --- | --- | --- |
| COc1ccc(-c2coc3cc(O)cc(O)c3c2=O)cc1O [MT-8, pratensein] | 2.6 ± 0.3 |  |
| COc1ccc(-c2coc3cc(O)cc(O)c3c2=O)cc1 [TR-9] |  | TR-9 and TR-12 which showed variable effects on melanin generation also proved to be less efficacious inhibitors of hTPC2 |
| O=C1C[C@@H](c2ccc(O)cc2)Oc2cc(O)cc(O)c21 [MT-16, naringenin] | 74 ± 9 |  |
| O=C1C[C@@H](c2ccccc2)Oc2cc(O)cc(O)c21 [TR-12] |  | TR-9 and TR-12 which showed variable effects on melanin generation also proved to be less efficacious inhibitors of hTPC2 |
| COc1ccc([C@@H]2COc3c(ccc(O)c3OC)C2)c(OC)c1O [UM-9, duartin] | 9.5 ± 2.8 |  |
